Experimental data as given in patent publication US20070128217A1 (priority 2003, published 2007).

Key:
[1] = test system: antibodies in sera from SARS patients (sera 1a, 1b, 2, 6, 37, 62, London, SARS-yellow, SARS-green); assay type: binding, human; set-up: Binding of serum 6 to linear peptides of protein X1 of SARS-CoV Urbani / Binding of serum 37 to linear peptides of protein X1 of SARS-CoV Urbani / Binding of serum 6 to looped/cyclic peptide (PEPSCAN-ELISA) / Binding of serum 37 to looped/cyclic peptide (PEPSCAN-ELISA) / Binding of serum 37 to looped/cyclic peptides of protein X1 of SARS-CoV Urbani / Binding of serum 6 to linear peptides of protein X2 / Binding of serum 37 to linear peptides of protein X2 / Binding of serum 37 to looped/cyclic peptides of protein X2 of SARS-CoV Urbani / Binding of serum 6 to linear peptides of protein M of SARS-CoV Urbani / Binding of serum 37 to linear peptides of protein M of SARS-CoV Urbani / Binding of serum 6 to looped/cyclic peptides of protein M of SARS-CoV Urbani / Binding of serum 37 to looped/cyclic peptides of protein M of SARS-CoV Urbani / Binding of serum 6 to linear peptides of protein X3 of SARS-CoV Urbani / Binding of serum 37 to linear peptides of protein X3 of SARS-CoV Urbani / Binding of serum 37 to looped/cyclic peptides of protein X3 of SARS-CoV Urbani / Binding of serum 6 to linear peptides of protein X4 of SARS-CoV Urbani / Binding of serum 37 to linear peptides of protein X4 of SARS-CoV Urbani / Binding of serum 37 to looped/cyclic peptides of protein X4 of SARS-CoV Urbani / Binding of serum 6 to linear peptides of protein X5 of SARS-CoV Urbani / Binding of serum 37 to linear peptides of protein X5 of SARS-CoV Urbani / Binding of serum 37 to looped/cyclic peptides of protein X5 of SARS-CoV Urbani / Binding of serum 6 to linear peptides of protein N of SARS-CoV Urbani / Binding of serum 37 to linear peptides of protein N of SARS-CoV Urbani / Binding of serum 6 to linear peptide (PEPSCAN-ELISA) / Binding of serum 1a to looped/cyclic peptides of protein N of SARS-CoV Urbani / Binding of serum 1b to looped/cyclic peptides of protein N of SARS-CoV Urbani / Binding of serum 2 to looped/cyclic peptides of protein N of SARS-CoV Urbani / Binding of serum 6 to looped/cyclic peptides of protein N of SARS-CoV Urbani / Binding of serum 37 to looped/cyclic peptides of protein N of SARS-CoV Urbani / Binding of serum 62 to looped/cyclic peptides of protein N of SARS-CoV Urbani / Binding of serum London to looped/cyclic peptides of protein N of SARS-CoV Urbani / Binding of serum SARS-green to looped/cyclic peptides of protein N of SARS-CoV Urbani: unit not given here
[2] = test system: control sera (pooled serum of ten healthy LUMC hospital workers; commercial negative donor pooled serum from the Dutch bloodbank); assay type: binding, human; set-up: Binding of Control serum LUMC to linear peptides / Binding of Control serum Blood-bank to linear peptides / Binding of Control serum LUMC to looped peptides / Binding of Control Serum Blood-Bank to Looped peptides / Binding of Control serum LUMC to linear peptides of the protein M of SARS-CoV Urbani / Binding of Control serum Blood-bank to linear peptides of the protein M of SARS-CoV Urbani / Binding of Control serum LUMC to looped peptides of the protein M of SARS-CoV Urbani / Binding of Control Serum Blood-Bank to Looped peptides of the protein M of SARS-CoV Urbani: unit not given here
[3] = test system: rabbit serum obtained by immunizing a rabbit with the SARS-CoV strain Frankfurt 1; assay type: binding; set-up: Binding of a rabbit serum to linear peptides / Binding of a rabbit serum to looped peptides / Rabbit serum linear peptides / Rabbit serum looped peptides / Binding of a rabbit serum to linear peptides of protein N of SARS-CoV Urbani (Rabbit serum linear peptides) / Binding of a rabbit serum to looped/cyclic peptides of protein N of SARS-CoV Urbani (Rabbit serum looped peptides): unit not given here
[4] = test system: recombinant human anti-SARS-CoV antibody 03-018; assay type: binding; set-up: Binding of antibody 03-018 to linear peptides of the N protein of SARS-CoV Urbani / Binding of antibody 03-018 to looped/cyclic peptides of the N protein of SARS-CoV Urbani: unit not given here

## GMSRIGMEVTPSGTW
[1]
  Binding of serum 1a to linear peptides of protein N of SARS-CoV Urbani: 0.3
  Binding of serum 1a to looped/cyclic peptides of protein N of SARS-CoV Urbani: 0.3
  Binding of serum 1b to linear peptides of protein N of SARS-CoV Urbani: 0.1
  Binding of serum 1b to looped/cyclic peptides of protein N of SARS-CoV Urbani: 0.2
  Binding of serum 2 to linear peptides of protein N of SARS-CoV Urbani: 0.2
  Binding of serum 2 to looped/cyclic peptides of protein N of SARS-CoV Urbani: 0.3
  Binding of serum 6 to linear peptides of protein N of SARS-CoV Urbani: 0.2
  Binding of serum 6 to looped/cyclic peptides of protein N of SARS-CoV Urbani: 0.2
  Binding of serum 37 to linear peptides of protein N of SARS-CoV Urbani: 0.7
  Binding of serum 37 to looped/cyclic peptides of protein N of SARS-CoV Urbani: 0.5
  Binding of serum 62 to linear peptides of protein N of SARS-CoV Urbani: 0.7
  Binding of serum 62 to looped/cyclic peptides of protein N of SARS-CoV Urbani: 0.5
  Binding of serum London to linear peptides of protein N of SARS-CoV Urbani: 0.5
  Binding of serum London to looped/cyclic peptides of protein N of SARS-CoV Urbani: 0.4
  Binding of serum SARS-green to linear peptides of protein N of SARS-CoV Urbani: 0.5
  Binding of serum SARS-green to looped/cyclic peptides of protein N of SARS-CoV Urbani: 0.3
  Binding of serum SARS-yellow to linear peptides of protein N of SARS-CoV Urbani: 0.7
  Binding of serum SARS-yellow to looped/cyclic peptides of protein N of SARS-CoV Urbani: 0.5
[2]
  Control Serum Blood-Bank Looped peptides: 0.6
  Control serum Blood-bank linear peptides: 0.6
  Control serum LUMC linear peptides: 0.6
  Control serum LUMC looped peptides: 0.5
[3]
  Binding of a rabbit serum to linear peptides of protein N of SARS-CoV Urbani (Rabbit serum linear peptides): 0.1
  Binding of a rabbit serum to looped/cyclic peptides of protein N of SARS-CoV Urbani (Rabbit serum looped peptides): 0.4
[4]
  Binding of antibody 03-018 to linear peptides of the N protein of SARS-CoV Urbani: 0.1
  Binding of antibody 03-018 to looped/cyclic peptides of the N protein of SARS-CoV Urbani: 0.2

## GNFGDQDLIRQGTDY
[1]
  Binding of serum 1a to linear peptide (PEPSCAN-ELISA): 0.3
  Binding of serum 1a to looped/cyclic peptides of protein N of SARS-CoV Urbani: 0.5
  Binding of serum 1b to linear peptide (PEPSCAN-ELISA): 0.2
  Binding of serum 1b to looped/cyclic peptides of protein N of SARS-CoV Urbani: 0.3
  Binding of serum 2 to linear peptide (PEPSCAN-ELISA): 0.2
  Binding of serum 2 to looped/cyclic peptides of protein N of SARS-CoV Urbani: 0.5
  Binding of serum 6 to linear peptide (PEPSCAN-ELISA): 0.2
  Binding of serum 6 to looped/cyclic peptides of protein N of SARS-CoV Urbani: 0.3
  Binding of serum 37 to linear peptide (PEPSCAN-ELISA): 0.8
  Binding of serum 37 to looped/cyclic peptides of protein N of SARS-CoV Urbani: 0.8
  Binding of serum 62 to linear peptide (PEPSCAN-ELISA): 0.7
  Binding of serum 62 to looped/cyclic peptides of protein N of SARS-CoV Urbani: 0.8
  Binding of serum London to linear peptide (PEPSCAN-ELISA): 0.6
  Binding of serum London to looped/cyclic peptides of protein N of SARS-CoV Urbani: 0.5
  Binding of serum SARS-green to linear peptide (PEPSCAN-ELISA): 0.5
  Binding of serum SARS-green to looped/cyclic peptides of protein N of SARS-CoV Urbani: 0.7
  Binding of serum SARS-yellow to linear peptide (PEPSCAN-ELISA): 0.8
  Binding of serum SARS-yellow to looped/cyclic peptides of protein N of SARS-CoV Urbani: 0.6
[2]
  Binding of Control Serum Blood-Bank to Looped peptides: 0.9
  Binding of Control serum Blood-bank to linear peptides: 0.7
  Binding of Control serum LUMC to linear peptides: 0.6
  Binding of Control serum LUMC to looped peptides: 0.9
[3]
  Binding of a rabbit serum to linear peptides of protein N of SARS-CoV Urbani (Rabbit serum linear peptides): 0.2
  Binding of a rabbit serum to looped/cyclic peptides of protein N of SARS-CoV Urbani (Rabbit serum looped peptides): 0.5
[4]
  Binding of antibody 03-018 to linear peptides of the N protein of SARS-CoV Urbani: 0.1
  Binding of antibody 03-018 to looped/cyclic peptides of the N protein of SARS-CoV Urbani: 0.2

## GNSPARMASGGGETA
[1]
  Binding of serum 1a to linear peptide (PEPSCAN-ELISA): 0.3
  Binding of serum 1a to looped/cyclic peptides of protein N of SARS-CoV Urbani: 0.2
  Binding of serum 1b to linear peptide (PEPSCAN-ELISA): 0.1
  Binding of serum 1b to looped/cyclic peptides of protein N of SARS-CoV Urbani: 0.1
  Binding of serum 2 to linear peptide (PEPSCAN-ELISA): 0.2
  Binding of serum 2 to looped/cyclic peptides of protein N of SARS-CoV Urbani: 0.3
  Binding of serum 6 to linear peptide (PEPSCAN-ELISA): 0.2
  Binding of serum 6 to looped/cyclic peptides of protein N of SARS-CoV Urbani: 0.1
  Binding of serum 37 to linear peptide (PEPSCAN-ELISA): 0.6
  Binding of serum 37 to looped/cyclic peptides of protein N of SARS-CoV Urbani: 0.2
  Binding of serum 62 to linear peptide (PEPSCAN-ELISA): 0.6
  Binding of serum 62 to looped/cyclic peptides of protein N of SARS-CoV Urbani: 0.2
  Binding of serum London to linear peptide (PEPSCAN-ELISA): 0.6
  Binding of serum London to looped/cyclic peptides of protein N of SARS-CoV Urbani: 0.3
  Binding of serum SARS-green to linear peptide (PEPSCAN-ELISA): 0.2
  Binding of serum SARS-green to looped/cyclic peptides of protein N of SARS-CoV Urbani: 0.3
  Binding of serum SARS-yellow to linear peptide (PEPSCAN-ELISA): 0.5
  Binding of serum SARS-yellow to looped/cyclic peptides of protein N of SARS-CoV Urbani: 0.0
[2]
  Binding of Control Serum Blood-Bank to Looped peptides: 0.5
  Binding of Control serum Blood-bank to linear peptides: 0.8
  Binding of Control serum LUMC to linear peptides: 0.7
  Binding of Control serum LUMC to looped peptides: 0.4
[3]
  Binding of a rabbit serum to linear peptides of protein N of SARS-CoV Urbani (Rabbit serum linear peptides): 0.1
  Binding of a rabbit serum to looped/cyclic peptides of protein N of SARS-CoV Urbani (Rabbit serum looped peptides): 0.0
[4]
  Binding of antibody 03-018 to linear peptides of the N protein of SARS-CoV Urbani: 0.2
  Binding of antibody 03-018 to looped/cyclic peptides of the N protein of SARS-CoV Urbani: 0.2

## GPDDQIGYYRRATRR
[1]
  Binding of serum 1a to linear peptides of protein N of SARS-CoV Urbani: 0.2
  Binding of serum 1a to looped/cyclic peptides of protein N of SARS-CoV Urbani: 0.4
  Binding of serum 1b to linear peptides of protein N of SARS-CoV Urbani: 0.1
  Binding of serum 1b to looped/cyclic peptides of protein N of SARS-CoV Urbani: 0.3
  Binding of serum 2 to linear peptides of protein N of SARS-CoV Urbani: 0.2
  Binding of serum 2 to looped/cyclic peptides of protein N of SARS-CoV Urbani: 0.5
  Binding of serum 6 to linear peptides of protein N of SARS-CoV Urbani: 0.2
  Binding of serum 6 to looped/cyclic peptides of protein N of SARS-CoV Urbani: 0.4
  Binding of serum 37 to linear peptides of protein N of SARS-CoV Urbani: 0.6
  Binding of serum 37 to looped/cyclic peptides of protein N of SARS-CoV Urbani: 0.8
  Binding of serum 62 to linear peptides of protein N of SARS-CoV Urbani: 0.6
  Binding of serum 62 to looped/cyclic peptides of protein N of SARS-CoV Urbani: 0.8
  Binding of serum London to linear peptides of protein N of SARS-CoV Urbani: 0.4
  Binding of serum London to looped/cyclic peptides of protein N of SARS-CoV Urbani: 0.5
  Binding of serum SARS-green to linear peptides of protein N of SARS-CoV Urbani: 0.3
  Binding of serum SARS-green to looped/cyclic peptides of protein N of SARS-CoV Urbani: 0.6
  Binding of serum SARS-yellow to linear peptides of protein N of SARS-CoV Urbani: 0.6
  Binding of serum SARS-yellow to looped/cyclic peptides of protein N of SARS-CoV Urbani: 0.9
[2]
  Binding of Control Serum Blood-Bank to Looped peptides: 0.9
  Binding of Control serum Blood-bank to linear peptides: 0.8
  Binding of Control serum LUMC to linear peptides: 0.8
  Binding of Control serum LUMC to looped peptides: 0.9
[3]
  Recognition of the peptide by the rabbit serum: recognized
[4]
  Binding of antibody 03-018 to linear peptides of the N protein of SARS-CoV Urbani: 0.1
  Binding of antibody 03-018 to looped/cyclic peptides of the N protein of SARS-CoV Urbani: 0.3
